Assay results from patent US12497408B2, “Tetracyclic compounds and methods for the treatment of Zika virus infection” (priority 2021, dated 2025).
pEC50: −log10 of the molar value.

What follows are compounds tested on ZIKV (assay: ZIKV reporter virus-based antiviral screening on Huh7 cells). Details: Zika virus, Huh-7, 48 h, Huh7 cells infected with recombinant luciferase reporter ZIKV (MOI about 0.1), luciferase signal.
Format: cell-based, Zika virus
Outline: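 Huh7 cells in 2% FBS assay medium infected at MOI about 0.1 with Renilla or Nano luciferase ZIKV premixed with nine-point compound dilutions, 48 hrs at 37° C. Luciferase signal normalized to DMSO controls as 100%; viability optionally by CellTiter-Glo with Rlu virus.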

| Compound | pEC50 |
| --- | --- |
| COC(=O)N[C@H](C(=O)N1[C@@H](C)CC[C@H]1c1nc(C(C)C)c(-c2cc3c4c(c2)OCc2cc(-c5[nH]c([C@@H]6CC[C@H](C)N6C(=O)[C@@H](NC(=O)OC)C(C)C)nc5C(C)C)cc(c2-4)OC3)[nH]1)C(C)C [Compound 40, dimethyl ((2S,2′S)-((2S,2′S,5S,5′S)-((5,10-dihydrochromeno[5,4,3-cde]chromene-2,7-diyl)bis(4-isopropyl-1H-imidazole-5,2-diyl))bis(2-methylpyrrolidine-5,1-diyl))bis(3-methyl-1-oxobutane-1,2-diyl))dicarbamate] | 8.25 |
| CC[C@H](C)[C@H](NC(=O)OC)C(=O)N1C[C@H](F)C[C@H]1c1nc(Cl)c(-c2cc3c4c(c2)OCc2cc(-c5[nH]c([C@@H]6C[C@@H](F)CN6C(=O)[C@@H](NC(=O)OC)[C@@H](C)CC)nc5Cl)cc(c2-4)OC3)[nH]1 [Compound 54, dimethyl ((2S,2′S,3S,3′S)-((3R,3′R,5S,5′S)-((5,10-dihydrochromeno[5,4,3-cde]chromene-2,7-diyl)bis(4-chloro-1H-imidazole-5,2-diyl))bis(3-fluoropyrrolidine-5,1-diyl))bis(3-methyl-1-oxopentane-1,2-diyl))dicarbamate] | 8.10 |
| COC(=O)N[C@H](C(=O)N[C@H](c1nc(Cl)c(-c2cc3c4c(c2)OCc2cc(-c5[nH]c([C@@H](NC(=O)[C@@H](NC(=O)OC)C(C)C)C(C)(C)C)nc5Cl)cc(c2-4)OC3)[nH]1)C(C)(C)C)C(C)C [Compound 20, dimethyl ((2S,2′S)-(((1S,1′S)-((5,10-dihydrochromeno[5,4,3-cde]chromene-2,7-diyl)bis(4-chloro-1H-imidazole-5,2-diyl))bis(2,2-dimethylpropane-1,1-diyl))bis(azanediyl))bis(3-methyl-1-oxobutane-1,2-diyl))dicarbamate] | < 6.43 |
| COC(=O)N[C@H](C(=O)N1CCC[C@H]1c1nc(Cl)c(-c2cc3c4c(c2)OCc2cc(-c5[nH]c([C@@H]6CCCN6C(=O)[C@@H](NC(=O)OC)c6ccccc6)nc5Cl)cc(c2-4)OC3)[nH]1)c1ccccc1 [Compound 23, dimethyl ((1S,1′S)-((2S,2′S)-((5,10-dihydrochromeno[5,4,3-cde]chromene-2,7-diyl)bis(4-chloro-1H-imidazole-5,2-diyl))bis(pyrrolidine-2,1-diyl))bis(2-oxo-1-phenylethane-2,1-diyl))dicarbamate] | 7.28 |
| COC(=O)N[C@H](C(=O)N1C[C@H](C)C[C@H]1c1nc(Cl)c(-c2cc3c4c(c2)OCc2cc(-c5[nH]c([C@@H]6C[C@@H](C)CN6C(=O)[C@@H](NC(=O)OC)C(C)C)nc5C(C)C)cc(c2-4)OC3)[nH]1)C(C)C [Compound 84, methyl ((S)-1-((2S,4R)-2-(5-(7-(4-chloro-2-((2S,4R)-1-((methoxycarbonyl)-L-valyl)-4-methylpyrrolidin-2-yl)-1H-imidazol-5-yl)-5,10-dihydrochromeno[5,4,3-cde]chromen-2-yl)-4-isopropyl-1H-imidazol-2-yl)-4-methylpyrrolidin-1-yl)-3-methyl-1-oxobutan-2-yl)carbamate] | 8.48 |
| COC(=O)N[C@H](C(=O)N1CCC[C@H]1c1nc(Cl)c(-c2cc3c4c(c2)OCc2cc(-c5[nH]c([C@@H]6CCCN6C(=O)[C@@H](NC(=O)OC)C(C)(C)C(F)(F)F)nc5Cl)cc(c2-4)OC3)[nH]1)C(C)(C)C(F)(F)F [Compound 27, dimethyl ((2S,2′S)-((2S,2′S)-((5,10-dihydrochromeno[5,4,3-cde]chromene-2,7-diyl)bis(4-chloro-1H-imidazole-5,2-diyl))bis(pyrrolidine-2,1-diyl))bis(4,4,4-trifluoro-3,3-dimethyl-1-oxobutane-1,2-diyl))dicarbamate] | 8.59 |
| COC[C@H]1CC[C@@H](c2nc(Cl)c(-c3cc4c5c(c3)OCc3cc(-c6[nH]c([C@@H]7CC[C@H](COC)N7C(=O)[C@@H](NC(=O)OC)C(C)C)nc6Cl)cc(c3-5)OC4)[nH]2)N1C(=O)[C@@H](NC(=O)OC)C(C)C [Compound 49, dimethyl ((2S,2′S)-((2R,2′R,5S,5′S)-((5,10-dihydrochromeno[5,4,3-cde]chromene-2,7-diyl)bis(4-chloro-1H-imidazole-5,2-diyl))bis(2-(methoxymethyl)pyrrolidine-5,1-diyl))bis(3-methyl-1-oxobutane-1,2-diyl))dicarbamate] | 8.72 |
| CC[C@H](C)[C@H](NC(=O)OC)C(=O)N1C[C@@H](C)C[C@H]1c1ncc(-c2cc3c4c(c2)OCc2cc(-c5[nH]c([C@@H]6C[C@H](C)CN6C(=O)[C@@H](NC(=O)OC)[C@@H](C)CC)nc5Cl)cc(c2-4)OC3)[nH]1 [Compound 67, methyl ((2S,3S)-1-((2S,4S)-2-(4-chloro-5-(7-(2-((2S,4S)-1-((methoxycarbonyl)-L-isoleucyl)-4-methylpyrrolidin-2-yl)-1H-imidazol-5-yl)-5,10-dihydrochromeno[5,4,3-cde]chromen-2-yl)-1H-imidazol-2-yl)-4-methylpyrrolidin-1-yl)-3-methyl-1-oxopentan-2-yl)carbamate] | 7.62 |
| CC[C@@H](C)[C@H](NC(=O)OC)C(=O)N1CCC[C@H]1c1nc(Cl)c(-c2cc3c4c(c2)OCc2cc(-c5[nH]c([C@@H]6CCCN6C(=O)[C@@H](NC(=O)OC)[C@H](C)CC)nc5Cl)cc(c2-4)OC3)[nH]1 [Compound 32, dimethyl ((2S,2′S,3R,3′R)-((2S,2′S)-((5,10-dihydrochromeno[5,4,3-cde]chromene-2,7-diyl)bis(4-chloro-1H-imidazole-5,2-diyl))bis(pyrrolidine-2,1-diyl))bis(3-methyl-1-oxopentane-1,2-diyl))dicarbamate] | 8.96 |
| COC(=O)N[C@H](C(=O)N1C[C@@H](C)C[C@H]1c1nc(C(C)C)c(-c2cc3c4c(c2)OCc2cc(-c5[nH]c([C@@H]6C[C@H](C)CN6C(=O)[C@@H](NC(=O)OC)C(C)C)nc5C(C)C)cc(c2-4)OC3)[nH]1)C(C)C [Compound 72, dimethyl ((2S,2′S)-((3S,3′S,5S,5′S)-((5,10-dihydrochromeno[5,4,3-cde]chromene-2,7-diyl)bis(4-isopropyl-1H-imidazole-5,2-diyl))bis(3-methylpyrrolidine-5,1-diyl))bis(3-methyl-1-oxobutane-1,2-diyl))dicarbamate] | 7.93 |
| CC[C@@H](C)[C@H](NC(=O)OC)C(=O)N1[C@@H](C)CC[C@H]1c1nc(Cl)c(-c2cc3c4c(c2)OCc2cc(-c5[nH]c([C@@H]6CC[C@H](C)N6C(=O)[C@@H](NC(=O)OC)[C@H](C)CC)nc5Cl)cc(c2-4)OC3)[nH]1 [Compound 33, dimethyl ((2S,2′S,3R,3′R)-((2S,2′S,5S,5′S)-((5,10-dihydrochromeno[5,4,3-cde]chromene-2,7-diyl)bis(4-chloro-1H-imidazole-5,2-diyl))bis(2-methylpyrrolidine-5,1-diyl))bis(3-methyl-1-oxopentane-1,2-diyl))dicarbamate] | 9.05 |
| COC(=O)N[C@H](C(=O)N1[C@H](c2nc(Cl)c(-c3cc4c5c(c3)OCc3cc(-c6[nH]c([C@@H]7C[C@@H]8C[C@@H]8N7C(=O)[C@@H](NC(=O)OC)C(C)(C)C(F)(F)F)nc6Cl)cc(c3-5)OC4)[nH]2)C[C@@H]2C[C@@H]21)C(C)(C)C(F)(F)F [Compound 12, dimethyl ((2S,2′S)-((1S,1′S,3S,3′S,5S,5′S)-((5,10-dihydrochromeno[5,4,3-cde]chromene-2,7-diyl)bis(4-chloro-1H-imidazole-5,2-diyl))bis(2-azabicyclo[3.1.0]hexane-3,2-diyl))bis(4,4,4-trifluoro-3,3-dimethyl-1-oxobutane-1,2-diyl))dicarbamate] | 7.92 |
| CC[C@H](C)[C@H](NC(=O)OC)C(=O)N1[C@H](c2nc(Cl)c(-c3cc4c5c(c3)OCc3cc(-c6[nH]c([C@@H]7C[C@@H]8CCC[C@@H]8N7C(=O)[C@@H](NC(=O)OC)[C@@H](C)CC)nc6Cl)cc(c3-5)OC4)[nH]2)C[C@@H]2CCC[C@@H]21 [Compound 36, dimethyl ((2S,2′S,3S,3′S)-((2S,2′S,3aS,3a′S,6aS,6a′S)-((5,10-dihydrochromeno[5,4,3-cde]chromene-2,7-diyl)bis(4-chloro-1H-imidazole-5,2-diyl))bis(hexahydrocyclopenta[b]pyrrole-2,1(2H)-diyl))bis(3-methyl-1-oxopentane-1,2-diyl))dicarbamate] | 8.37 |
| COC(=O)N[C@H](C(=O)N1[C@@H](C)CC[C@H]1c1nc(Cl)c(-c2cc3c4c(c2)OCc2cc(-c5[nH]c([C@@H]6CC[C@H](C)N6C(=O)[C@@H](NC(=O)OC)C6C[C@@H](C)O[C@H](C)C6)nc5Cl)cc(c2-4)OC3)[nH]1)C1C[C@@H](C)O[C@H](C)C1 (stereo partly drawn) [Compound 21, dimethyl ((1S,1′S)-((2S,2′S,5S,5′S)-((5,10-dihydrochromeno[5,4,3-cde]chromene-2,7-diyl)bis(4-chloro-1H-imidazole-5,2-diyl))bis(2-methylpyrrolidine-5,1-diyl))bis(1-((2R,6R)-2,6-dimethyltetrahydro-2H-pyran-4-yl)-2-oxoethane-2,1-diyl))dicarbamate] | 8.03 |
| COC(=O)N[C@H](C(=O)N1CCC[C@@]1(C)c1nc(Cl)c(-c2cc3c4c(c2)OCc2cc(-c5[nH]c([C@]6(C)CCCN6C(=O)[C@@H](NC(=O)OC)C(C)C)nc5Cl)cc(c2-4)OC3)[nH]1)C(C)C [Compound 64, dimethyl ((2S,2′S)-((2S,2′S)-((5,10-dihydrochromeno[5,4,3-cde]chromene-2,7-diyl)bis(4-chloro-1H-imidazole-5,2-diyl))bis(2-methylpyrrolidine-2,1-diyl))bis(3-methyl-1-oxobutane-1,2-diyl))dicarbamate] | 6.63 |
| COC(=O)N[C@H](C(=O)N1CC2(CC2)C[C@H]1c1nc(Cl)c(-c2cc3c4c(c2)OCc2cc(-c5[nH]c([C@@H]6CC7(CC7)CN6C(=O)[C@@H](NC(=O)OC)C(C)C)nc5Cl)cc(c2-4)OC3)[nH]1)C(C)C [Compound 59, dimethyl ((2S,2′S)-((6S,6′S)-((5,10-dihydrochromeno[5,4,3-cde]chromene-2,7-diyl)bis(4-chloro-1H-imidazole-5,2-diyl))bis(5-azaspiro[2.4]heptane-6,5-diyl))bis(3-methyl-1-oxobutane-1,2-diyl))dicarbamate] | 8.82 |
